For experiment [1], the target named is T1, HDAC8 (Homo sapiens, UniProt Q9BY41).
T1 sequence (Q9BY41 1-377): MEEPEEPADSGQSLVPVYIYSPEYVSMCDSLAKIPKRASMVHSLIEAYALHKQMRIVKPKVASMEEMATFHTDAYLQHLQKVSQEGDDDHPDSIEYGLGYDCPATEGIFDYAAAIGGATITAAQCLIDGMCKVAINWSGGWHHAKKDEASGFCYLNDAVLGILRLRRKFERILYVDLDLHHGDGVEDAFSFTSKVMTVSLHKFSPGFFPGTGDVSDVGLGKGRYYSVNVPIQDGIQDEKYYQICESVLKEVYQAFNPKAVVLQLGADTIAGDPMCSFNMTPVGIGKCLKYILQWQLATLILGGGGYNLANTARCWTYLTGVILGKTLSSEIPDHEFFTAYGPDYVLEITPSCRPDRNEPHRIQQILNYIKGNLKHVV
As to the kind of experiment: Trypsin-coupled steady-state kinetic assay with Fluor de Lys substrate. Type of experiment: biochemical.

The target of experiment [2] is T1, HDAC8. As to the kind of experiment: Stopped-flow transient kinetics, c-SAHA as competitive ligand. Type of experiment: binding. The conditions noted are these: pH 7.5, read-out: koff (dissociation off-rate).
The target of experiment [3] is T1, HDAC8. Put plainly: Fluorescence displacement method with c-SAHA as probe, Dynafit analysis.
Experiment [4] has as its target T1, HDAC8. As to the kind of experiment: Direct fluorescence titration of c-SAHA with HDAC8. Type of experiment: binding.

From paper PMC2980575 (Analytical biochemistry, 2010) come the findings set out here.

By Ki is commonly meant the dissociation constant of the complex between target and ligand, obtained from inhibition or displacement. Read a low Ki as tighter binding. A word on the koff: it is the rate constant with which the complex falls apart. In general, Kd refers to a measure of binding affinity in units of concentration. The low end stands for tighter binding, the high end for weaker binding.

In experiment [1], `CN(C)c1ccc(C(=O)NCCCCCCC(=O)NO)cc1` [M344, 4-Dimethylamino-N-(6-hydroxycarbamoylhexyl)-benzamide] had a Ki of 180 ± 20 nM. Further, the koff in experiment [2] was 1.05 ± 0.12 s⁻¹. Besides, in experiment [3], binding was characterised by a dissociation constant (Kd) of 320 ± 90 nM.

As to `Cc1cc(=O)oc2cc(NC(=O)CCCCCCC(=O)NO)ccc12` [c-SAHA, N^1-hydroxy-N^8-(4-methyl-2-oxo-2H-chromen-7-yl)octanediamide], the Ki in experiment [1] worked out at 160 nM. For the same compound, the “Ki of c-SAHA lower than that of parent compound SAHA” value in experiment [1] (steady-state kinetic data, c-SAHA versus SAHA) is “about 5 fold”. In addition, the Kd in experiment [4] was 160 ± 20 nM.
